Data published in PubChem BioAssay (NCI).
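48-hour exposure; five concentrations; linearly interpolated endpoints. TGI marks complete inhibition of growth.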

How the values were obtained:
Test in all cases: NCI tumour cell line growth inhibition, 48 h
SW-620 colon = tested on: SW-620 colon
CAKI-1 renal = tested on: CAKI-1 renal
SF-295 CNS = tested on: SF-295 CNS
DMS 114 small cell lung = tested on: DMS 114 small cell lung
RPMI-8226 leukemia = tested on: RPMI-8226 leukemia
ACHN renal = tested on: ACHN renal
OVCAR-5 ovarian = tested on: OVCAR-5 ovarian
LXFL 529 NSCLC = tested on: LXFL 529 NSCLC
SF-539 CNS = tested on: SF-539 CNS
NCI-H226 lung = tested on: NCI-H226 lung
SK-MEL-28 melanoma = tested on: SK-MEL-28 melanoma
HCT-15 colon = tested on: HCT-15 colon
A498 renal = tested on: A498 renal
UO-31 renal = tested on: UO-31 renal
A549 NSCLC = tested on: A549 NSCLC
HT29 colon = tested on: HT29 colon
SK-OV-3 ovarian = tested on: SK-OV-3 ovarian
TK-10 renal = tested on: TK-10 renal
CCRF-CEM leukemia = tested on: CCRF-CEM leukemia
SK-MEL-5 melanoma = tested on: SK-MEL-5 melanoma
U251 CNS = tested on: U251 CNS
IGROV1 ovarian = tested on: IGROV1 ovarian
UACC-62 melanoma = tested on: UACC-62 melanoma
HCC-2998 colon = tested on: HCC-2998 colon
UACC-257 melanoma = tested on: UACC-257 melanoma
DMS 273 small cell lung = tested on: DMS 273 small cell lung
M14 melanoma = tested on: M14 melanoma
K-562 leukemia = tested on: K-562 leukemia
DLD-1 colon = tested on: DLD-1 colon
OVCAR-3 ovarian = tested on: OVCAR-3 ovarian
HL-60(TB) leukemia = tested on: HL-60(TB) leukemia
HCT-116 colon = tested on: HCT-116 colon
RXF-631 renal = tested on: RXF-631 renal
RXF 393 renal = tested on: RXF 393 renal
786-0 renal = tested on: 786-0 renal
EKVX NSCLC = tested on: EKVX NSCLC
M19-MEL melanoma = tested on: M19-MEL melanoma
OVCAR-4 ovarian = tested on: OVCAR-4 ovarian
OVCAR-8 ovarian = tested on: OVCAR-8 ovarian
MOLT-4 leukemia = tested on: MOLT-4 leukemia
NCI-H23 lung = tested on: NCI-H23 lung
SNB-78 CNS = tested on: SNB-78 CNS
NCI-H460 lung = tested on: NCI-H460 lung
XF 498 CNS = tested on: XF 498 CNS
HOP-62 NSCLC = tested on: HOP-62 NSCLC
MALME-3M melanoma = tested on: MALME-3M melanoma
SK-MEL-2 melanoma = tested on: SK-MEL-2 melanoma
SNB-75 CNS = tested on: SNB-75 CNS
KM12 colon = tested on: KM12 colon
KM20L2 colon = tested on: KM20L2 colon
LOX IMVI melanoma = tested on: LOX IMVI melanoma
SF-268 CNS = tested on: SF-268 CNS
SR leukemia = tested on: SR leukemia
MDA-N = tested on: MDA-N
SN12C renal = tested on: SN12C renal
MDA-MB-435 = tested on: MDA-MB-435
NCI-H522 lung = tested on: NCI-H522 lung
HS 578T breast = tested on: HS 578T breast
HOP-18 NSCLC = tested on: HOP-18 NSCLC
NCI/ADR-RES ovarian = tested on: NCI/ADR-RES ovarian
PC-3 prostate = tested on: PC-3 prostate
DU-145 prostate = tested on: DU-145 prostate
COLO 205 colon = tested on: COLO 205 colon
MCF7 breast = tested on: MCF7 breast
BT-549 breast = tested on: BT-549 breast
SNB-19 CNS = tested on: SNB-19 CNS
MDA-MB-231 breast = tested on: MDA-MB-231 breast
HOP-92 NSCLC = tested on: HOP-92 NSCLC
T-47D breast = tested on: T-47D breast

SMILES: O=c1[nH]c(-c2ccccc2)nc2cc(Cl)ccc12
- TGI (SW-620 colon): > 100 µM
- TGI (CAKI-1 renal): > 100 µM
- TGI (SF-295 CNS): > 100 µM
- TGI (DMS 114 small cell lung): > 100 µM
- TGI (RPMI-8226 leukemia): > 100 µM
- TGI (ACHN renal): > 100 µM
- TGI (OVCAR-5 ovarian): > 100 µM
- TGI (LXFL 529 NSCLC): > 100 µM
- TGI (SF-539 CNS): > 100 µM
- TGI (NCI-H226 lung): > 100 µM
- TGI (SK-MEL-28 melanoma): > 100 µM
- TGI (HCT-15 colon): > 100 µM
- TGI (A498 renal): > 100 µM
- TGI (UO-31 renal): > 100 µM
- TGI (A549 NSCLC): > 100 µM
- TGI (HT29 colon): > 100 µM
- TGI (SK-OV-3 ovarian): > 100 µM
- TGI (TK-10 renal): > 100 µM
- TGI (CCRF-CEM leukemia): > 100 µM
- TGI (SK-MEL-5 melanoma): > 100 µM
- TGI (U251 CNS): > 100 µM
- TGI (IGROV1 ovarian): > 100 µM
- TGI (UACC-62 melanoma): > 100 µM
- TGI (HCC-2998 colon): > 100 µM
- TGI (UACC-257 melanoma): > 100 µM
- TGI (DMS 273 small cell lung): > 100 µM
- TGI (M14 melanoma): > 100 µM
- TGI (K-562 leukemia): > 100 µM
- TGI (DLD-1 colon): > 100 µM
- TGI (OVCAR-3 ovarian): > 100 µM
- TGI (HL-60(TB) leukemia): > 100 µM
- TGI (HCT-116 colon): > 100 µM
- TGI (RXF-631 renal): > 100 µM
- TGI (RXF 393 renal): > 100 µM
- TGI (786-0 renal): > 100 µM
- TGI (EKVX NSCLC): > 100 µM
- TGI (M19-MEL melanoma): > 100 µM
- TGI (OVCAR-4 ovarian): > 100 µM
- TGI (OVCAR-8 ovarian): > 100 µM
- TGI (MOLT-4 leukemia): > 100 µM
- TGI (NCI-H23 lung): > 100 µM
- TGI (SNB-78 CNS): > 100 µM
- TGI (NCI-H460 lung): > 100 µM
- TGI (XF 498 CNS): > 100 µM
- TGI (HOP-62 NSCLC): > 100 µM
- TGI (MALME-3M melanoma): > 100 µM
- TGI (SK-MEL-2 melanoma): > 100 µM
- TGI (SNB-75 CNS): > 100 µM
- TGI (KM12 colon): > 100 µM
- TGI (KM20L2 colon): > 100 µM

SMILES: CCOc1ccc(NC2=CC(=O)C(=O)c3ccccc32)cc1
- TGI (SW-620 colon): 3.53 µM
- TGI (CAKI-1 renal): 20.9 µM
- TGI (SF-295 CNS): 5.4 µM
- TGI (DMS 114 small cell lung): 3.71 µM
- TGI (LOX IMVI melanoma): 2.77 µM
- TGI (SF-268 CNS): 22.4 µM
- TGI (RPMI-8226 leukemia): 26.2 µM
- TGI (ACHN renal): 5.74 µM
- TGI (SR leukemia): 17.6 µM
- TGI (OVCAR-5 ovarian): 9.46 µM
- TGI (LXFL 529 NSCLC): 11.2 µM
- TGI (SF-539 CNS): 4.18 µM
- TGI (NCI-H226 lung): 13.3 µM
- TGI (MDA-N): 3.94 µM
- TGI (SN12C renal): 3.31 µM
- TGI (SK-MEL-28 melanoma): 7.22 µM
- TGI (HCT-15 colon): 6.72 µM
- TGI (A498 renal): 12.2 µM
- TGI (UO-31 renal): 13.5 µM
- TGI (MDA-MB-435): 3.19 µM
- TGI (A549 NSCLC): 7.65 µM
- TGI (HT29 colon): 15.8 µM
- TGI (NCI-H522 lung): 3.39 µM
- TGI (SK-OV-3 ovarian): 24.9 µM
- TGI (TK-10 renal): 21.6 µM
- TGI (CCRF-CEM leukemia): 56.8 µM
- TGI (SK-MEL-5 melanoma): 2.95 µM
- TGI (U251 CNS): 13.1 µM
- TGI (IGROV1 ovarian): 16.9 µM
- TGI (UACC-62 melanoma): 3.2 µM
- TGI (HCC-2998 colon): 26 µM
- TGI (UACC-257 melanoma): 3.04 µM
- TGI (DMS 273 small cell lung): 8.01 µM
- TGI (HS 578T breast): 5.9 µM
- TGI (M14 melanoma): 3.27 µM
- TGI (K-562 leukemia): 26.9 µM
- TGI (HOP-18 NSCLC): 4.61 µM
- TGI (DLD-1 colon): 21.7 µM
- TGI (OVCAR-3 ovarian): 8.21 µM
- TGI (HL-60(TB) leukemia): 4.13 µM
- TGI (NCI/ADR-RES ovarian): 11.3 µM
- TGI (PC-3 prostate): 19.8 µM
- TGI (HCT-116 colon): 10.1 µM
- TGI (DU-145 prostate): 5.05 µM
- TGI (COLO 205 colon): 10.9 µM
- TGI (RXF 393 renal): 14.6 µM
- TGI (786-0 renal): 13.7 µM
- TGI (EKVX NSCLC): 30.9 µM
- TGI (M19-MEL melanoma): 2.03 µM
- TGI (OVCAR-4 ovarian): 7.8 µM
- TGI (OVCAR-8 ovarian): 15.4 µM
- TGI (MCF7 breast): 3.93 µM
- TGI (MOLT-4 leukemia): 80.1 µM
- TGI (NCI-H23 lung): 3.93 µM
- TGI (BT-549 breast): 3.02 µM
- TGI (SNB-19 CNS): 9.46 µM
- TGI (SNB-78 CNS): 39.5 µM
- TGI (NCI-H460 lung): 6.97 µM
- TGI (XF 498 CNS): 5.31 µM
- TGI (HOP-62 NSCLC): 12 µM
- TGI (MALME-3M melanoma): 3.56 µM
- TGI (MDA-MB-231 breast): 54.5 µM
- TGI (SK-MEL-2 melanoma): 16.2 µM
- TGI (SNB-75 CNS): 5.35 µM
- TGI (KM12 colon): 12.2 µM
- TGI (HOP-92 NSCLC): 30.7 µM
- TGI (T-47D breast): 27.9 µM
- TGI (KM20L2 colon): 36.7 µM

SMILES: CCOC(=O)C1Sc2ccccc2N=C1C (centres undefined)
- TGI (SW-620 colon): > 100 µM
- TGI (SF-295 CNS): > 100 µM
- TGI (DMS 114 small cell lung): > 100 µM
- TGI (LOX IMVI melanoma): > 100 µM
- TGI (SF-268 CNS): > 100 µM
- TGI (RPMI-8226 leukemia): > 100 µM
- TGI (ACHN renal): > 100 µM
- TGI (SR leukemia): > 100 µM
- TGI (OVCAR-5 ovarian): > 100 µM
- TGI (LXFL 529 NSCLC): > 100 µM
- TGI (SF-539 CNS): > 100 µM
- TGI (NCI-H226 lung): > 100 µM
- TGI (SN12C renal): > 100 µM
- TGI (SK-MEL-28 melanoma): > 100 µM
- TGI (HCT-15 colon): > 100 µM
- TGI (A498 renal): > 100 µM
- TGI (UO-31 renal): > 100 µM
- TGI (A549 NSCLC): > 100 µM
- TGI (HT29 colon): > 100 µM
- TGI (NCI-H522 lung): > 100 µM
- TGI (TK-10 renal): > 100 µM
- TGI (U251 CNS): > 100 µM
- TGI (IGROV1 ovarian): > 100 µM
- TGI (HCC-2998 colon): > 100 µM
- TGI (UACC-257 melanoma): > 100 µM
- TGI (K-562 leukemia): > 100 µM
- TGI (HOP-18 NSCLC): > 100 µM
- TGI (DLD-1 colon): > 100 µM
- TGI (OVCAR-3 ovarian): > 100 µM
- TGI (HL-60(TB) leukemia): > 100 µM
- TGI (HCT-116 colon): > 100 µM
- TGI (COLO 205 colon): > 100 µM
- TGI (RXF 393 renal): > 100 µM
- TGI (786-0 renal): > 100 µM
- TGI (EKVX NSCLC): > 100 µM
- TGI (M19-MEL melanoma): > 100 µM
- TGI (OVCAR-4 ovarian): > 100 µM
- TGI (OVCAR-8 ovarian): > 100 µM
- TGI (MOLT-4 leukemia): > 100 µM
- TGI (NCI-H23 lung): > 100 µM
- TGI (SNB-19 CNS): > 100 µM
- TGI (SNB-78 CNS): > 100 µM
- TGI (NCI-H460 lung): > 100 µM
- TGI (XF 498 CNS): > 100 µM
- TGI (HOP-62 NSCLC): > 100 µM
- TGI (MALME-3M melanoma): > 100 µM
- TGI (SK-MEL-2 melanoma): > 100 µM
- TGI (SNB-75 CNS): > 100 µM
- TGI (KM12 colon): > 100 µM
- TGI (HOP-92 NSCLC): > 100 µM
- TGI (KM20L2 colon): > 100 µM
